From the supplement of paper PMC13380429
Where a name gives a salt, the structure may show the parent alone.

Key:
Settings in all cases: 72 h
Caco-2 [1] = experiment: cell viability relative to DMSO; higher = less toxic
Calu-3 [2] = experiment: as above
Vero E6 [3] = experiment: as above
U2OS [4] = experiment: as above
HepG2 [5] = experiment: as above
Caco-2 [6] = experiment: drug sensitivity score (DSS) for viability; higher = more toxic; extreme values may be limits of the assay
Calu-3 [7] = experiment: as above
Vero E6 [8] = experiment: as above
U2OS [9] = experiment: as above
HepG2 [10] = experiment: as above
Caco-2 [11] = experiment: relative viability EC50 (midpoint between 100% and the lowest measured viability); higher = less toxic
Calu-3 [12] = experiment: as above
U2OS [13] = experiment: as above
Vero E6 [14] = experiment: as above
HepG2 [15] = experiment: as above

SMILES | cell viability (Caco-2 [1]; 1 nM) [%] | cell viability (Caco-2 [1]; 10 nM) [%] | cell viability (Caco-2 [1]; 100 nM) [%] | cell viability (Caco-2 [1]; 1000 nM) [%] | cell viability (Caco-2 [1]; 10000 nM) [%] | cell viability (Calu-3 [2]; 1 nM) [%] | cell viability (Calu-3 [2]; 10 nM) [%] | cell viability (Calu-3 [2]; 100 nM) [%] | cell viability (Calu-3 [2]; 1000 nM) [%] | cell viability (Calu-3 [2]; 10000 nM) [%] | cell viability (Vero E6 [3]; 1 nM) [%] | cell viability (Vero E6 [3]; 10 nM) [%] | cell viability (Vero E6 [3]; 100 nM) [%] | cell viability (Vero E6 [3]; 1000 nM) [%] | cell viability (Vero E6 [3]; 10000 nM) [%] | cell viability (U2OS [4]; 1 nM) [%] | cell viability (U2OS [4]; 10 nM) [%] | cell viability (U2OS [4]; 100 nM) [%] | cell viability (U2OS [4]; 1000 nM) [%] | cell viability (U2OS [4]; 10000 nM) [%] | cell viability (HepG2 [5]; 1 nM) [%] | cell viability (HepG2 [5]; 10 nM) [%] | cell viability (HepG2 [5]; 100 nM) [%] | cell viability (HepG2 [5]; 1000 nM) [%] | cell viability (HepG2 [5]; 10000 nM) [%] | drug sensitivity score (Caco-2 [6]) | drug sensitivity score (Calu-3 [7]) | drug sensitivity score (Vero E6 [8]) | drug sensitivity score (U2OS [9]) | drug sensitivity score (HepG2 [10]) | relative viability EC50 (Caco-2 [11]) [µM] | relative viability EC50 (Calu-3 [12]) [µM] | relative viability EC50 (U2OS [13]) [µM] | relative viability EC50 (Vero E6 [14]) [µM] | relative viability EC50 (HepG2 [15]) [µM]
c1cc(-c2cnn3cc(-c4ccc(N5CCNCC5)cc4)cnc23)c2cccnc2c1 | 93.9 | 99.7 | 102 | 95.1 | 20.6 | 109 | 104 | 97.4 | 111 | 6.2 | 92.4 | 99 | 92.6 | 87.7 | 69.3 | 97.4 | 93.2 | 95.9 | 87.2 | 1.5 | 108 | 101 | 97.2 | 102 | 74.9 | 5.1 | 4.5 | 2.5 | 7.6 | 0.8 | 2.67 | 3.69 | 2.11 | – | –
COCc1c(-c2ccc(NC(=O)Nc3cc(C(F)(F)F)ccc3F)c(F)c2)c2c(N)ncnn2c1CN1CCOCC1 [ACTB-1003] | 105 | 99 | 102 | 78.4 | 32.9 | 101 | 87.5 | 93.9 | 72.1 | 65.2 | 95.7 | 102 | 101 | 106 | 24.8 | 97.6 | 97.1 | 101 | 75 | 23.3 | 110 | 104 | 91.1 | 18.1 | 2.1 | 6.8 | 5.2 | 3.7 | 7.8 | 16.2 | 1.35 | – | 1.34 | 3.57 | 0.386
CCCC(C)(COC(N)=O)COC(=O)NC(C)C (centres undefined) [CARISOPRODOL] | 96.1 | 103 | 97.6 | 101 | 104 | 108 | 88.2 | 93.2 | 85.7 | 98.1 | 106 | 101 | 98.8 | 105 | 101 | 102 | 97.7 | 101 | 102 | 104 | – | – | – | – | – | 0 | 0 | 0 | 0 | – | > 10 | > 10 | > 10 | > 10 | –
N[C@@H](C(=O)O)c1cc(O)ccc1Cl [CHPG] | 94.2 | 91.7 | 94.8 | 98.7 | 96 | – | – | – | – | – | 94.9 | 93.4 | 92.2 | 94.6 | 108 | 97.6 | 99 | 98.5 | 104 | 103 | – | – | – | – | – | 0 | – | 0 | 0 | – | > 10 | – | > 10 | > 10 | –
CS(=O)(=O)N1CCN(Cc2cc3nc(-c4cccc5[nH]ncc45)nc(N4CCOCC4)c3s2)CC1 [GDC-0941] | – | – | – | – | – | – | – | – | – | – | – | – | – | – | – | – | – | – | – | – | – | – | – | – | – | 11.6 | 11.8 | 6.5 | 6.9 | 9.2 | 0.158 | 0.438 | 0.775 | – | –
CC1Nc2ccc(Cl)cc2S(=O)(=O)N1 (centres undefined) [IDRA-21] | 105 | 105 | 95 | 104 | 99 | 87.5 | 92.2 | 102 | 97.4 | 101 | – | – | – | – | – | 99.3 | 105 | 99.6 | 102 | 98.2 | 102 | 93.8 | 97.3 | 98.9 | 98 | 0 | 0 | – | 0 | 0 | > 10 | > 10 | > 10 | – | > 10
CC(C)c1ccc(NC(=O)c2cccs2)c(-c2nc3ccccc3[nH]c2=O)c1 [ML281] | 102 | 102 | 96.5 | 102 | 93.5 | – | – | – | – | – | 96.3 | 101 | 97 | 95.5 | 96.1 | 111 | 105 | 101 | 102 | 98.3 | 103 | 106 | 105 | 95.7 | 102 | 0 | – | 0 | 0 | 0 | > 10 | – | > 10 | > 10 | > 10
Cc1ccc(NCCCc2ccccc2)c(N)c1 [NFKB-activation-inhibitor-II] | 89.4 | 85 | 92.6 | 98.4 | 79.9 | 90 | 93.8 | 94.7 | 103 | 84.1 | – | – | – | – | – | 98.9 | 102 | 94.9 | 102 | 93.2 | 110 | 97.1 | 103 | 98.2 | 100 | 0 | 0.1 | – | 0 | 0 | > 10 | > 10 | > 10 | – | > 10
Cc1c(NC(=O)N2CCOCC2)ccc2c1c1ccccc1n2C(C)C [NPY-5RA972] | 92.2 | 106 | 98.7 | 101 | 95.4 | 109 | 89.5 | 105 | 93.5 | 96 | – | – | – | – | – | 100 | 98.2 | 105 | 98.6 | 97.5 | 102 | 98.5 | 97.3 | 118 | 95.5 | 0 | 0 | – | 0 | 0 | > 10 | > 10 | > 10 | – | > 10
CCCn1c(=O)[nH]c2nc(-c3ccc(S(=O)(=O)O)cc3)[nH]c2c1=O [PSB-1115] | 99.4 | 94.6 | 111 | 105 | 95.4 | 112 | 104 | 100 | 110 | 94.4 | 106 | 105 | 107 | 103 | 95.5 | 99.9 | 109 | 98.2 | 108 | 102 | – | – | – | – | – | 0 | 0 | 0 | 0 | – | > 10 | > 10 | > 10 | > 10 | –
CC[C@H]1OC(=O)C[C@@H](O)[C@H](C)[C@@H](O[C@@H]2O[C@H](C)[C@@H](O[C@H]3C[C@@](C)(O)[C@@H](O)[C@H](C)O3)[C@H](N(C)C)[C@H]2O)[C@@H](CC=O)C[C@@H](C)C(=O)/C=C/C(C)=C/[C@@H]1CO[C@@H]1O[C@H](C)[C@@H](O)[C@@H](OC)[C@H]1OC [TYLOSIN TARTRATE] | 101 | 96.4 | 109 | 63 | 23.4 | 104 | 108 | 104 | 91 | 74.6 | 102 | 102 | 98.7 | 95.2 | 18.9 | 102 | 97.3 | 96.9 | 56.6 | 39.9 | 99 | 101 | 95.2 | 94.8 | 40.7 | 8.9 | 2.1 | 5.2 | 8.7 | 4 | 1.03 | – | 0.566 | 2.7 | 2.44
CC(C)N1CCN(c2ccc(C(=O)c3c(-c4ccc(O)cc4)sc4cc(O)ccc34)cc2)CC1 [Y-134] | 99.5 | 102 | 100 | 98.7 | 81.4 | 96 | 96.2 | 101 | 102 | 72.4 | 101 | 104 | 102 | 103 | 82.8 | 102 | 98.5 | 99 | 97.1 | 91.8 | 113 | 101 | 94 | 104 | 72.3 | 0.6 | 1 | 0.3 | 0 | 0.9 | > 10 | – | > 10 | > 10 | –
C=C(C)[C@@H]1CC[C@]2(C(=O)O)CC[C@]3(C)[C@H](CC[C@@H]4[C@@]5(C)CC[C@H](O)C(C)(C)[C@@H]5CC[C@]43C)[C@@H]12 [betulinic-acid] | 102 | 108 | 92.3 | 112 | 102 | 93.1 | 97.9 | 93 | 106 | 100 | – | – | – | – | – | 101 | 101 | 98 | 99 | 95 | 109 | 97.4 | 114 | 101 | 113 | 0 | 0 | – | 0 | 0 | > 10 | > 10 | > 10 | – | > 10
O=c1[nH]c(=O)n([C@H]2C[C@H](O)[C@@H](CO)O2)cc1/C=C/Br [brivudine] | 97 | 111 | 104 | 109 | 100 | – | – | – | – | – | – | – | – | – | – | 94.4 | 98.5 | 94.5 | 104 | 98 | – | – | – | – | – | 0 | – | – | 0 | – | > 10 | – | > 10 | – | –
C=C1CC/C=C(\C)CC[C@@H]2[C@@H]1CC2(C)C [g-caryophyllene] | 109 | 112 | 97.3 | 121 | 80.6 | – | – | – | – | – | 103 | 89.3 | 104 | 94.8 | 100 | 92.8 | 101 | 95.3 | 99.9 | 99 | 105 | 95.5 | 113 | 104 | 94.9 | 0.2 | – | 0 | 0 | 0 | > 10 | – | > 10 | > 10 | > 10
N#Cc1ccnc(N2C(=O)CC[C@H]2C(=O)N(c2cncc(F)c2)[C@H](C(=O)NC2CC(F)(F)C2)c2ccccc2Cl)c1 [ivosidenib] | 105 | 97.6 | 94.2 | 93 | 104 | 98.8 | 109 | 93.7 | 104 | 97.3 | – | – | – | – | – | 104 | 100 | 104 | 101 | 98.3 | 97.5 | 97.7 | 95.1 | 106 | 98.7 | 0 | 0 | – | 0 | 0 | > 10 | > 10 | > 10 | – | > 10
